Source: ChEMBL document CHEMBL5727696, “Tetrahydroisoquinoline derived PRMT5-inhibitors” (2020)

Assay: Revised Biochemical Assay: Full-length PRMT5 enzyme (NCBI Reference sequence NP_006100.2) was co-expressed with Hiss-MEP50 in insect cells and purified via Nickel immobilized metal affinity and gel filtration chromatography (“the enzyme”).The 6 μL reactions are run in Greiner brand black 384-well low volume assay plates. All reactions contained assay buffer (phosphate buffered saline, 0.01% (v/v) Tween-20, 0.01% (w/v) albumin from chicken egg white, 1 mM Dithiothreitol, 1 μM peptide substrate, 1 μM S-Adenosyl methionine, and 15 ng/reaction enzyme, with the enzyme being omitted from negative control reactions. Compounds were added in a volume of 100 nL from dilution series prepared in DMSO, positive and negative control reactions receiving the same volume DMSO without compound. The plates were sealed with adhesive seals and incubated for 4 hours at 37 degree Celsius. Reaction progress was measured using the Transcreener™ EPIGEN methyltransferase assay (BellBrook Labs, Madison, Wis.) as recommended by the manufacturer. To each reaction 2 μL detection mix were added, containing coupling enzymes, fluorescence polarisation tracer, and AMP antibody. Plates were incubated for 90 minutes before being read on a PerkinElmer EnVision plate reader in fluorescence polarisation mode.

N#Cc1ccc(C(=O)NCCC(O)CN2CCc3ccccc3C2)cc1 (stereo unspecified)
IC50: 3.98 µM
